# Assay results reported in patent US11998532B1 (priority 2023, dated 2024).
# System: multidrug-resistant (MDR) strains of Mycobacterium tuberculosis
# Test: microbe, parasite or virus in culture
# Format: cell-based
# Conditions: 192 h, read-out: MIC MDR-TB
row,Structure (SMILES),MIC
1,"COc1ccc(Cl)cc1-n1ncc(-c2nnc(-c3ccc(Cl)cc3)o2)c1C [Compound 7a, 2-(1-(5-Chloro-2-methoxyphenyl)-5-methyl-1H-pyrazol-4-yl)-5-(4-chlorophenyl)-1,3,4-oxadiazole]",16 µg/mL
2,"COc1ccc(Cl)cc1-n1ncc(-c2nnc(-c3ccc(F)cc3)o2)c1C [Compound 7b, 2-(1-(5-Chloro-2-methoxyphenyl)-5-methyl-1H-pyrazol-4-yl)-5-(4-fluorophenyl)-1,3,4-oxadiazole]",8 µg/mL
3,"COc1ccc(Cl)cc1-n1ncc(-c2nnc(-c3ccc(C)c(Br)c3)o2)c1C [Compound 7c, 2-(3-Bromo-4-methylphenyl)-5-(1-(5-chloro-2-methoxyphenyl)-5-methyl-1H-pyrazol-4-yl)-1,3,4-oxadiazole]",64 µg/mL
4,"COc1ccc(Cl)cc1-n1ncc(-c2nnc(-c3ccccc3)o2)c1C [Compound 7d, 2-(1-(5-Chloro-2-methoxyphenyl)-5-methyl-1H-pyrazol-4-yl)-5-phenyl-1,3,4-oxadiazole]",32 µg/mL
5,"COc1ccc(Cl)cc1-n1ncc(-c2nnc(-c3ccc(Br)cc3)o2)c1C [Compound 7e, 2-(4-Bromophenyl)-5-(1-(5-chloro-2-methoxyphenyl)-5-methyl-1H-pyrazol-4-yl)-1,3,4-oxadiazole]",16 µg/mL
6,"COc1ccc(Cl)cc1-n1ncc(-c2nnc(-c3ccc(Br)c(C)c3)o2)c1C [Compound 7f, 2-(4-Bromo-3-methylphenyl)-5-(1-(5-chloro-2-methoxyphenyl)-5-methyl-1H-pyrazol-4-yl)-1,3,4-oxadiazole]",64 µg/mL
7,"COc1ccc(Cl)cc1-n1ncc(-c2nnc(-c3cccc(F)c3)o2)c1C [Compound 7g, 2-(1-(5-Chloro-2-methoxyphenyl)-5-methyl-1H-pyrazol-4-yl)-5-(3-fluorophenyl)-1,3,4-oxadiazole]",32 µg/mL
8,"COc1ccc(Cl)cc1-n1ncc(-c2nnc(-c3cc(Cl)cc(Cl)c3)o2)c1C [Compound 7h, 2-(1-(5-Chloro-2-methoxyphenyl)-5-methyl-1H-pyrazol-4-yl)-5-(3,5-dichlorophenyl)-1,3,4-oxadiazole]",16 µg/mL
9,"COc1ccc(Cl)cc1-n1ncc(-c2nnc(-c3ccc(Cl)c(Cl)c3)o2)c1C [Compound 7i, 2-(1-(5-Chloro-2-methoxyphenyl)-5-methyl-1H-pyrazol-4-yl)-5-(3,4-dichlorophenyl)-1,3,4-oxadiazole]",32 µg/mL
10,"COc1ccc(Cl)cc1-n1ncc(-c2nnc(-c3ccc(C)c([N+](=O)[O-])c3)o2)c1C [Compound 7j, 2-(1-(5-Chloro-2-methoxyphenyl)-5-methyl-1H-pyrazol-4-yl)-5-(4-methyl-3-nitrophenyl)-1,3,4-oxadiazole]",64 µg/mL
